Experimental data published in patent US20240116951A1, “HETEROCYCLIC COMPOUNDS AND USES THEREOF” (Kumquat Biosciences Inc., priority 2022, published 2024).

Legend:
Assay type in all cases: binding
KRAS G12S = target: T1, KRAS G12S (Homo sapiens, UniProt P01116, G12S); assay: HTRF assay of K-Ras G12S interaction with SOS1 (PPI-HTRF); details: 5 nM KRAS G12S, read-out: PPI-HTRF-5 nM KRAS G12S
T1 construct: made in house; host or cells: E. coli, e.g. BL21 (DE3)
Summary of the method: (§1)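 HTRF readout of GST-tagged K-Ras (WT or mutant) binding to His-hSOS1, using anti-GST-Eu donor and anti-6His-XL665 acceptor in HEPES pH 7.4 buffer with DTT, BSA and Igepal. Read after about 10 min or longer; duplicate compound dilutions from 10 μM. IC50 from 665/620 nm ratio.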

KRAS G12D = target: T2, KRAS G12D (Homo sapiens, UniProt P01116, G12D); assay: HTRF assay of K-Ras G12D interaction with SOS1 (PPI-HTRF); details: HTRF, 5 nM KRAS G12D; read-out: PPI-HTRF-5 nM KRAS G12D
T2 construct: made in house; host or cells: E. coli, e.g. BL21 (DE3)
Summary of the method: as §1

KRAS WT = target: T3, KRAS WT (Homo sapiens, UniProt P01116); assay: HTRF assay of wildtype K-Ras interaction with SOS1 (PPI-HTRF); details: HTRF, 5 nM KRAS WT; read-out: PPI-HTRF-5 nM KRAS WT
T3 construct: made in house; host or cells: E. coli, e.g. BL21 (DE3)
Summary of the method: as §1

Measured: IC50

T2 sequence (P01116 1-188 isoform P01116-2 G12D): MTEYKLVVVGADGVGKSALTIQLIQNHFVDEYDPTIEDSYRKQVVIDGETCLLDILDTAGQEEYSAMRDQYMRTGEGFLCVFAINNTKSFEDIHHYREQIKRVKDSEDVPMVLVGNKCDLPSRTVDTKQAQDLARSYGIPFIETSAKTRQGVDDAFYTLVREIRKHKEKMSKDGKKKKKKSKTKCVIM
T3 sequence (P01116 1-188 isoform P01116-2): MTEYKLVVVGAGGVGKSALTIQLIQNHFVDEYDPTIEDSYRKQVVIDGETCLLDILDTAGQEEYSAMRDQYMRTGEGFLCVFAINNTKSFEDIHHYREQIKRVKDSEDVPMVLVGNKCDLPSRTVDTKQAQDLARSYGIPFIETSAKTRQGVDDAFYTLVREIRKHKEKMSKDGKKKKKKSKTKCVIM
T1 sequence (P01116 1-188 isoform P01116-2 G12S): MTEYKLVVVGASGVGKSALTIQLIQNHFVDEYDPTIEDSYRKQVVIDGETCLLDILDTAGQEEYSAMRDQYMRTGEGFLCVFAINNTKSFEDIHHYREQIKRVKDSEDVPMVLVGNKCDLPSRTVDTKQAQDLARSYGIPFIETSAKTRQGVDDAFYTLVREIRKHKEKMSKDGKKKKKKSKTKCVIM

N#Cc1c(N)sc2c(F)ccc(-c3c(Cl)cc4c(N5CCC6(CCN6C#N)C5)nc(OC[C@@]56CCCN5C[C@H](F)C6)nc4c3F)c12 (stereo partly drawn) [Compound 303, 6-(7-(2-amino-3-cyano-7-fluorobenzo[b]thiophen-4-yl)-6-chloro-8-fluoro-2-(((2R,7aS)-2-fluorotetrahydro-1H-pyrrolizin-7a(5H)-yl)methoxy)quinazolin-4-yl)-1,6-diazaspiro[3.4]octane-1-carbonitrile]
< 5 µM: all assays above

CC(C)c1ncn(C(=O)N2CCC23CCN(c2nc(OC[C@@]45CCCN4C[C@H](F)C5)nc4c(F)c(-c5ccc(F)c6sc(N)c(C#N)c56)c(Cl)cc24)C3)n1 (stereo partly drawn) [Compound 304, 2-amino-4-(6-chloro-8-fluoro-2-(((2R,7aS)-2-fluorotetrahydro-1H-pyrrolizin-7a(5H)-yl)methoxy)-4-(1-(3-isopropyl-1H-1,2,4-triazole-1-carbonyl)-1,6-diazaspiro[3.4]octan-6-yl)quinazolin-7-yl)-7-fluorobenzo[b]thiophene-3-carbonitrile]
< 5 µM: all assays above

N#Cc1c(N)sc2c(F)ccc(-c3c(Cl)cc4c(N5CC[C@]6(CCN6C(=O)n6cncn6)C5)nc(OC[C@@]56CCCN5C[C@H](F)C6)nc4c3F)c12 [Compound 305, 4-(4-((S)-1-(1H-1,2,4-triazole-1-carbonyl)-1,6-diazaspiro[3.4]octan-6-yl)-6-chloro-8-fluoro-2-(((2R,7aS)-2-fluorotetrahydro-1H-pyrrolizin-7a(5H)-yl)methoxy)quinazolin-7-yl)-2-amino-7-fluorobenzo[b]thiophene-3-carbonitrile]
< 5 µM: all assays above

Cc1nc(C)n(C(=O)N2CC[C@]23CCN(c2nc(OC[C@@]45CCCN4C[C@H](F)C5)nc4c(F)c(-c5ccc(F)c6sc(N)c(C#N)c56)c(Cl)cc24)C3)n1 [Compound 306, 2-amino-4-(6-chloro-4-((S)-1-(3,5-dimethyl-1H-1,2,4-triazole-1-carbonyl)-1,6-diazaspiro[3.4]octan-6-yl)-8-fluoro-2-(((2R,7aS)-2-fluorotetrahydro-1H-pyrrolizin-7a(5H)-yl)methoxy)quinazolin-7-yl)-7-fluorobenzo[b]thiophene-3-carbonitrile]
< 5 µM: all assays above

Cc1nc(C)n(C(=O)N2CC[C@@]23CCN(c2nc(OC[C@@]45CCCN4C[C@H](F)C5)nc4c(F)c(-c5ccc(F)c6sc(N)c(C#N)c56)c(Cl)cc24)C3)n1 [Compound 307, 2-amino-4-(6-chloro-4-((R)-1-(3,5-dimethyl-1H-1,2,4-triazole-1-carbonyl)-1,6-diazaspiro[3.4]octan-6-yl)-8-fluoro-2-(((2R,7aS)-2-fluorotetrahydro-1H-pyrrolizin-7a(5H)-yl)methoxy)quinazolin-7-yl)-7-fluorobenzo[b]thiophene-3-carbonitrile]
< 5 µM: all assays above

N#Cc1c(N)sc2c(F)ccc(-c3c(Cl)cc4c(N5CCC6(CCN6C(=O)n6cnc(C7CC7)n6)C5)nc(OC[C@@]56CCCN5C[C@H](F)C6)nc4c3F)c12 (stereo partly drawn) [Compound 308, 2-amino-4-(6-chloro-4-(1-(3-cyclopropyl-1H-1,2,4-triazole-1-carbonyl)-1,6-diazaspiro[3.4]octan-6-yl)-8-fluoro-2-(((2R,7aS)-2-fluorotetrahydro-1H-pyrrolizin-7a(5H)-yl)methoxy)quinazolin-7-yl)-7-fluorobenzo[b]thiophene-3-carbonitrile]
< 5 µM: all assays above

N#Cc1cnn(C(=O)N2CCC23CCN(c2nc(OC[C@@]45CCCN4C[C@H](F)C5)nc4c(F)c(-c5ccc(F)c6sc(N)c(C#N)c56)c(Cl)cc24)C3)c1 (stereo partly drawn) [Compound 309, 1-(6-(7-(2-amino-3-cyano-7-fluorobenzo[b]thiophen-4-yl)-6-chloro-8-fluoro-2-(((2R,7aS)-2-fluorotetrahydro-1H-pyrrolizin-7a(5H)-yl)methoxy)quinazolin-4-yl)-1,6-diazaspiro[3.4]octane-1-carbonyl)-1H-pyrazole-4-carbonitrile]
< 5 µM: all assays above

N#Cc1cn(C(=O)N2CCC23CCN(c2nc(OC[C@@]45CCCN4C[C@H](F)C5)nc4c(F)c(-c5ccc(F)c6sc(N)c(C#N)c56)c(Cl)cc24)C3)cn1 (stereo partly drawn) [Compound 310, 1-(6-(7-(2-amino-3-cyano-7-fluorobenzo[b]thiophen-4-yl)-6-chloro-8-fluoro-2-(((2R,7aS)-2-fluorotetrahydro-1H-pyrrolizin-7a(5H)-yl)methoxy)quinazolin-4-yl)-1,6-diazaspiro[3.4]octane-1-carbonyl)-1H-imidazole-4-carbonitrile]
< 5 µM: all assays above

Cc1nc(Cl)n(C(=O)N2CCC23CCN(c2nc(OC[C@@]45CCCN4C[C@H](F)C5)nc4c(F)c(-c5ccc(F)c6sc(N)c(C#N)c56)c(Cl)cc24)C3)n1 (stereo partly drawn) [Compound 311, 2-amino-4-(6-chloro-4-(1-(5-chloro-3-methyl-1H-1,2,4-triazole-1-carbonyl)-1,6-diazaspiro[3.4]octan-6-yl)-8-fluoro-2-(((2R,7aS)-2-fluorotetrahydro-1H-pyrrolizin-7a(5H)-yl)methoxy)quinazolin-7-yl)-7-fluorobenzo[b]thiophene-3-carbonitrile]
< 5 µM: all assays above

N#Cc1c(N)sc2c(F)ccc(-c3c(Cl)cc4c(N5CCC6(CCN6C(=O)n6cnc(Cl)n6)C5)nc(OC[C@@]56CCCN5C[C@H](F)C6)nc4c3F)c12 (stereo partly drawn) [Compound 312, 2-amino-4-(6-chloro-4-(1-(3-chloro-1H-1,2,4-triazole-1-carbonyl)-1,6-diazaspiro[3.4]octan-6-yl)-8-fluoro-2-(((2R,7aS)-2-fluorotetrahydro-1H-pyrrolizin-7a(5H)-yl)methoxy)quinazolin-7-yl)-7-fluorobenzo[b]thiophene-3-carbonitrile]
< 5 µM: all assays above

COCc1ncn(C(=O)N2CCC23CCN(c2nc(OC[C@@]45CCCN4C[C@H](F)C5)nc4c(F)c(-c5ccc(F)c6sc(N)c(C#N)c56)c(Cl)cc24)C3)n1 (stereo partly drawn) [Compound 313, 2-amino-4-(6-chloro-8-fluoro-2-(((2R,7aS)-2-fluorotetrahydro-1H-pyrrolizin-7a(5H)-yl)methoxy)-4-(1-(3-(methoxymethyl)-1H-1,2,4-triazole-1-carbonyl)-1,6-diazaspiro[3.4]octan-6-yl)quinazolin-7-yl)-7-fluorobenzo[b]thiophene-3-carbonitrile]
< 5 µM: all assays above

CCc1ncn(C(=O)N2CCC23CCN(c2nc(OC[C@@]45CCCN4C[C@H](F)C5)nc4c(F)c(-c5ccc(F)c6sc(N)c(C#N)c56)c(Cl)cc24)C3)n1 (stereo partly drawn) [Compound 314, 2-amino-4-(6-chloro-4-(1-(3-ethyl-1H-1,2,4-triazole-1-carbonyl)-1,6-diazaspiro[3.4]octan-6-yl)-8-fluoro-2-(((2R,7aS)-2-fluorotetrahydro-1H-pyrrolizin-7a(5H)-yl)methoxy)quinazolin-7-yl)-7-fluorobenzo[b]thiophene-3-carbonitrile]
< 5 µM: all assays above

CN(C)CC1(COc2nc(N3CCC4(CCN4C(=O)n4cncn4)C3)c3cc(Cl)c(-c4ccc(F)c5sc(N)c(C#N)c45)c(F)c3n2)CC1 (stereo not drawn) [Compound 315, 4-(4-(1-(1H-1,2,4-triazole-1-carbonyl)-1,6-diazaspiro[3.4]octan-6-yl)-6-chloro-2-((1-((dimethylamino)methyl)cyclopropyl)methoxy)-8-fluoroquinazolin-7-yl)-2-amino-7-fluorobenzo[b]thiophene-3-carbonitrile]
< 5 µM: all assays above

N#CCC(=O)N1CC[C@@]12CCN(c1nc(OC[C@@]34CCCN3C[C@H](F)C4)nc3c(F)c(-c4ccc(F)c5sc(N)c(C#N)c45)c(Cl)cc13)C2 [Compound 316]
< 5 µM: all assays above

N#Cc1c(N)sc2c(F)ccc(-c3c(Cl)cc4c(N5CCC6(CCN6C(=O)n6cc(C(F)(F)F)nn6)C5)nc(OC[C@@]56CCCN5C[C@H](F)C6)nc4c3F)c12 (stereo partly drawn) [Compound 318, 2-amino-4-(6-chloro-8-fluoro-2-(((2R,7aS)-2-fluorotetrahydro-1H-pyrrolizin-7a(5H)-yl)methoxy)-4-(1-(4-(trifluoromethyl)-1H-1,2,3-triazole-1-carbonyl)-1,6-diazaspiro[3.4]octan-6-yl)quinazolin-7-yl)-7-fluorobenzo[b]thiophene-3-carbonitrile]
< 5 µM: all assays above

CN1CCC[C@H]1COc1nc(N2CCC3(CCN3C(=O)n3cncn3)C2)c2cc(Cl)c(-c3ccc(F)c4sc(N)c(C#N)c34)c(F)c2n1 (stereo partly drawn) [Compound 319, 4-(4-(1-(1H-1,2,4-triazole-1-carbonyl)-1,6-diazaspiro[3.4]octan-6-yl)-6-chloro-8-fluoro-2-(((S)-1-methylpyrrolidin-2-yl)methoxy)quinazolin-7-yl)-2-amino-7-fluorobenzo[b]thiophene-3-carbonitrile]
< 5 µM: all assays above
